± gives the standard deviation of the averaged measurements.
Columns and labels:
Conditions in all cases: exposure time: 72 h
[1] = test system: E13 (patient-derived glioblastoma stem cells of classical subtype); assay: surviving fraction (nuclei count normalised to DMSO); higher = more cells surviving (less toxic)
[2] = test system: E21 (patient-derived glioblastoma stem cells of mesenchymal subtype); assay: as above
[3] = test system: E28 (patient-derived glioblastoma stem cells of classical subtype); assay: as above
[4] = test system: E34 (patient-derived glioblastoma stem cells of proneural subtype); assay: as above
[5] = test system: E57 (patient-derived glioblastoma stem cells of mesenchymal subtype); assay: as above
[6] = test system: FT3469 (normal neural stem cell line); assay: as above
[7] = test system: E13; assay: phenotypic distance (Euclidean, principal components) from DMSO controls (arbitrary units); higher = stronger morphological change
[8] = test system: E21; assay: as above
[9] = test system: E28; assay: as above
[10] = test system: E34; assay: as above
[11] = test system: E57; assay: as above
[12] = test system: FT3469; assay: as above
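Wherever phenotypic distance (Euclidean, principal components) from DMSO controls is given: cell Painting imaging in 384-well plates, CellProfiler features reduced to at least 20 principal components, Euclidean distance versus same-plate DMSO vehicle wells (0.1% v/v), median over six images per well.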
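Wherever surviving fraction (nuclei count normalised to DMSO) is given: nuclei counted by high-content imaging of Hoechst-stained cells in laminin-coated 384-well plates, relative to 0.1% DMSO vehicle wells, with staurosporine as cell-death control.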

CN1C(=O)[C@@]23C[C@]4([C@]56C[C@@]78SS[C@@](CO)(C(=O)N7[C@H]5Nc5ccccc56)N(C)C8=O)c5ccccc5N[C@@H]4N2C(=O)[C@]1(CO)SS3 [Chaetocin]
Conditions | phenotypic distance | surviving fraction
[1], 4.1 nM | – | 0.552 ± 0.34
[1], 12.3 nM | – | 0.4 ± 0.24
[1], 37 nM | – | 0.0566 ± 0.0074
[1], 111.1 nM | – | 0.0323 ± 0.0054
[1], 333.3 nM | – | 0.00998 ± 0.00067
[1], 1000 nM | – | 0.0119 ± 0.0034
[1], 3000 nM | – | 0.0124 ± 0.004
[2], 4.1 nM | – | 0.253 ± 0.28
[2], 12.3 nM | – | 0.0911 ± 0.095
[2], 37 nM | – | 0.0242 ± 0.0099
[2], 111.1 nM | – | 0.00808 ± 0.00076
[2], 333.3 nM | – | 0.00862 ± 0.0076
[2], 1000 nM | – | 0.0113 ± 0.0069
[2], 3000 nM | – | 0.00808 ± 0.0099
[3], 4.1 nM | – | 0.328 ± 0.13
[3], 12.3 nM | – | 0.281 ± 0.12
[3], 37 nM | – | 0.1561 ± 0.00067
[3], 111.1 nM | – | 0.111 ± 0.0033
[3], 333.3 nM | – | 0.00802 ± 0.0033
[3], 1000 nM | – | 0.00283 ± 0.0013
[3], 3000 nM | – | 0.00707 ± 0.0087
[4], 4.1 nM | – | 0.41 ± 0.038
[4], 12.3 nM | – | 0.345 ± 0.19
[4], 37 nM | – | 0.149 ± 0.097
[4], 111.1 nM | – | 0.0449 ± 0.013
[4], 333.3 nM | – | 0.0206 ± 0.021
[4], 1000 nM | – | 0.0187 ± 0.016
[4], 3000 nM | – | 0.0159 ± 0.017
[5], 4.1 nM | – | 0.765 ± 0.45
[5], 12.3 nM | – | 0.402 ± 0.36
[5], 37 nM | – | 0.056 ± 0.0051
[5], 111.1 nM | – | 0.0464 ± 0.0016
[5], 333.3 nM | – | 0.00359 ± 0.0027
[5], 1000 nM | – | 0.00745 ± 0.0059
[5], 3000 nM | – | 0.00248 ± 0.0027
[6], 4.1 nM | – | 0.518 ± 0.19
[6], 12.3 nM | – | 0.481 ± 0.085
[6], 37 nM | – | 0.364 ± 0.081
[6], 111.1 nM | – | 0.194 ± 0.011
[6], 333.3 nM | – | 0.00806 ± 0.0013
[6], 1000 nM | – | 0.0296 ± 0.042
[6], 3000 nM | – | 0.0116 ± 0.011
[7], 4.1 nM | 2.76 ± 0.82 | –
[7], 12.3 nM | 3.18 ± 1.1 | –
[7], 37 nM | 5.87 ± 0.42 | –
[7], 111.1 nM | 7.1 ± 0.28 | –
[7], 333.3 nM | 10.5 ± 0.73 | –
[7], 1000 nM | 9.83 ± 0.74 | –
[7], 3000 nM | 10.7 ± 0.7 | –
[8], 4.1 nM | 4.37 ± 1.6 | –
[8], 12.3 nM | 4.95 ± 1.1 | –
[8], 37 nM | 7.07 ± 0.62 | –
[8], 111.1 nM | 10.1 ± 0.7 | –
[8], 333.3 nM | 12.7 ± 5.4 | –
[8], 1000 nM | 11.4 ± 0.9 | –
[8], 3000 nM | 14.2 ± 3.1 | –
[9], 4.1 nM | 1.98 ± 0.13 | –
[9], 12.3 nM | 2.51 ± 0.5 | –
[9], 37 nM | 3.933 ± 0.025 | –
[9], 111.1 nM | 5.55 ± 0.096 | –
[9], 333.3 nM | 10.4 ± 5.5 | –
[9], 1000 nM | 9.23 ± 0.18 | –
[9], 3000 nM | 9.7 ± 2.8 | –
[10], 4.1 nM | 2.24 ± 0.087 | –
[10], 12.3 nM | 3.35 ± 1.6 | –
[10], 37 nM | 6.13 ± 1.1 | –
[10], 111.1 nM | 7.1327 ± 0.0058 | –
[10], 333.3 nM | 10.8 ± 2.2 | –
[10], 1000 nM | 13 ± 0.63 | –
[10], 3000 nM | 11.9 ± 2.9 | –
[11], 4.1 nM | 2.84 ± 0.23 | –
[11], 12.3 nM | 3.23 ± 0.55 | –
[11], 37 nM | 4.87 ± 0.61 | –
[11], 111.1 nM | 5.13 ± 0.016 | –
[11], 333.3 nM | 8.15 ± 0.19 | –
[11], 1000 nM | 9.97 ± 1.4 | –
[11], 3000 nM | 10.7 ± 2.8 | –
[12], 4.1 nM | 3.69 ± 0.32 | –
[12], 12.3 nM | 3.49 ± 0.41 | –
[12], 37 nM | 4.19 ± 0.069 | –
[12], 111.1 nM | 5.8 ± 0.58 | –
[12], 333.3 nM | 10.7 ± 1.2 | –
[12], 1000 nM | 10.1 ± 2.5 | –
[12], 3000 nM | 9.44 ± 2.6 | –

CN[C@@H](C)C(=O)N[C@H](C(=O)N1CCC[C@H]1C(=O)N[C@H]1c2ccccc2C[C@H]1OCC#CC#CCO[C@@H]1Cc2ccccc2[C@@H]1NC(=O)[C@@H]1CCCN1C(=O)[C@@H](NC(=O)[C@H](C)NC)C1CCCCC1)C1CCCCC1 [AZD5582]
Conditions | phenotypic distance | surviving fraction
[1], 4.1 nM | – | 0.897 ± 0.13
[1], 12.3 nM | – | 0.9073 ± 0.006
[1], 37 nM | – | 0.764 ± 0.048
[1], 111.1 nM | – | 0.8218 ± 0.0047
[1], 333.3 nM | – | 0.814 ± 0.028
[1], 1000 nM | – | 0.789 ± 0.088
[1], 3000 nM | – | 0.755 ± 0.044
[2], 4.1 nM | – | 0.73 ± 0.02
[2], 12.3 nM | – | 0.739 ± 0.016
[2], 37 nM | – | 0.742 ± 0.033
[2], 111.1 nM | – | 0.721 ± 0.1
[2], 333.3 nM | – | 0.628 ± 0.015
[2], 1000 nM | – | 0.633 ± 0.0084
[2], 3000 nM | – | 0.5049 ± 0.0038
[3], 4.1 nM | – | 0.975 ± 0.043
[3], 12.3 nM | – | 1 ± 0.019
[3], 37 nM | – | 0.978 ± 0.069
[3], 111.1 nM | – | 1.01 ± 0.068
[3], 333.3 nM | – | 1.021 ± 0.0033
[3], 1000 nM | – | 0.944 ± 0.051
[3], 3000 nM | – | 0.802 ± 0.084
[4], 4.1 nM | – | 0.925 ± 0.17
[4], 12.3 nM | – | 0.838 ± 0.051
[4], 37 nM | – | 0.855 ± 0.059
[4], 111.1 nM | – | 0.911 ± 0.24
[4], 333.3 nM | – | 0.9 ± 0.038
[4], 1000 nM | – | 0.847 ± 0.058
[4], 3000 nM | – | 0.764 ± 0.05
[5], 4.1 nM | – | 0.95 ± 0.03
[5], 12.3 nM | – | 0.901 ± 0.084
[5], 37 nM | – | 0.824 ± 0.086
[5], 111.1 nM | – | 0.756 ± 0.13
[5], 333.3 nM | – | 0.756 ± 0.029
[5], 1000 nM | – | 0.719 ± 0.043
[5], 3000 nM | – | 0.771 ± 0.096
[6], 4.1 nM | – | 1.01 ± 0.11
[6], 12.3 nM | – | 0.996 ± 0.061
[6], 37 nM | – | 1.07 ± 0.046
[6], 111.1 nM | – | 1.03 ± 0.1
[6], 333.3 nM | – | 1.09 ± 0.18
[6], 1000 nM | – | 0.918 ± 0.16
[6], 3000 nM | – | 0.951 ± 0.057
[7], 4.1 nM | 1.42 ± 0.14 | –
[7], 12.3 nM | 1.1 ± 0.024 | –
[7], 37 nM | 1.5 ± 0.15 | –
[7], 111.1 nM | 1.31 ± 0.091 | –
[7], 333.3 nM | 1.39 ± 0.17 | –
[7], 1000 nM | 1.63 ± 0.21 | –
[7], 3000 nM | 1.79 ± 0.14 | –
[8], 4.1 nM | 1.08 ± 0.11 | –
[8], 12.3 nM | 1.03 ± 0.18 | –
[8], 37 nM | 1.42 ± 0.03 | –
[8], 111.1 nM | 1.39 ± 0.24 | –
[8], 333.3 nM | 1.47 ± 0.086 | –
[8], 1000 nM | 1.24 ± 0.12 | –
[8], 3000 nM | 1.92 ± 0.078 | –
[9], 4.1 nM | 0.701 ± 0.099 | –
[9], 12.3 nM | 0.512 ± 0.012 | –
[9], 37 nM | 0.645 ± 0.043 | –
[9], 111.1 nM | 0.558 ± 0.08 | –
[9], 333.3 nM | 0.744 ± 0.44 | –
[9], 1000 nM | 0.712 ± 0.15 | –
[9], 3000 nM | 2.48 ± 0.47 | –
[10], 4.1 nM | 0.7 ± 0.033 | –
[10], 12.3 nM | 0.804 ± 0.27 | –
[10], 37 nM | 0.881 ± 0.18 | –
[10], 111.1 nM | 1.07 ± 0.19 | –
[10], 333.3 nM | 0.735 ± 0.29 | –
[10], 1000 nM | 0.779 ± 0.11 | –
[10], 3000 nM | 1.26 ± 0.071 | –
[11], 4.1 nM | 0.861 ± 0.079 | –
[11], 12.3 nM | 1.22 ± 0.49 | –
[11], 37 nM | 1.41 ± 0.24 | –
[11], 111.1 nM | 2.04 ± 0.45 | –
[11], 333.3 nM | 2.285 ± 0.019 | –
[11], 1000 nM | 2.41 ± 0.31 | –
[11], 3000 nM | 2.795 ± 0.0065 | –
[12], 4.1 nM | 0.951 ± 0.59 | –
[12], 12.3 nM | 1.11 ± 0.14 | –
[12], 37 nM | 1.34 ± 0.83 | –
[12], 111.1 nM | 0.955 ± 0.1 | –
[12], 333.3 nM | 0.844 ± 0.068 | –
[12], 1000 nM | 1.57 ± 0.8 | –
[12], 3000 nM | 1.61 ± 0.34 | –

Reference: the supplement of paper PMC13207355
